{"source": "patent US20160271251A1", "about": "“RADIOLUMINESCENT COMPOUND FOR RADIOTHERAPY AND DEEP PHOTODYNAMIC THERAPY AND DEVICE FOR DEEP PHOTODYNAMIC THERAPY” (SYNCHROTRON SOLEIL, priority 2013, published 2016)", "key": {"[1]": {"experiment": "X-ray-excited luminescence (radioluminescence) spectrum", "type": "physicochemical", "conditions": "for emission band of X-ray-excited luminescence: c=177 mM", "description": "(§1) For the acquisition of these spectra, the two molecules are mixed in the same aqueous solvent. The energy of the X-ray radiation is generally comprised between 1 and 20 keV and selected so as to be higher than an absorption threshold of the radioluminescent molecule, so that the radioluminescent molecule absorbs the X-ray radiation of energy and emits a luminescence radiation in the visible domain."}, "[2]": {"experiment": "UV-visible absorption spectrum of photosensitiser", "type": "physicochemical", "description": "as §1"}}}
{"compound": "[Cl][Gd]([Cl])[Cl]", "note": "[GdCl3, gadolinium chloride]", "values": [{"measurement": "emission bands/peak of X-ray-excited luminescence", "setting": "[1]; DMSO medium, EuCl3 c=96 mM, GdCl3 c=199 mM", "result": "around 320 nm"}]}
{"compound": "[Cl][Eu]([Cl])[Cl]", "note": "[EuCl3, europium chloride]", "values": [{"measurement": "most intense of the three peaks observed", "setting": "[1]; DMSO medium (FIG. 7)", "result": 700, "unit": "nm"}, {"measurement": "most intense of the three peaks observed", "setting": "[1]; aqueous medium (FIG. 2)", "result": 600, "unit": "nm"}]}
{"compound": "Oc1cccc(-c2c3nc(c(-c4cccc(O)c4)c4ccc([nH]4)c(-c4cccc(O)c4)c4nc(c(-c5cccc(O)c5)c5ccc2[nH]5)CC4)C=C3)c1", "note": "[mTHPC, meta-tetrahydroxyphenylchlorine]", "values": [{"measurement": "most intense absorption band", "setting": "[2]; PEG:EtOH:H2O 3:2:5 v/v, c=0.49 μM", "result": "around 400 nm"}]}
{"compound": "[Cl][Ce]([Cl])[Cl]", "note": "[CeCl3, cerium chloride]", "values": [{"measurement": "emission band of X-ray-excited luminescence", "setting": "[1]; PBS pH=7.4", "result": "300-400 nm"}, {"measurement": "emission band of X-ray-excited luminescence", "setting": "[1]; PEG:EtOH:H2O 3:2:5 v/v, X-ray 1-20 keV", "result": "300-400 nm"}]}
{"compound": "chlorine e6", "values": [{"measurement": "most intense absorption band", "setting": "[2]; PBS pH=7.4, c=0.8 μM", "result": "around 400 nm"}]}
{"compound": "[Al].c1ccc2c(c1)-c1nc-2nc2[nH]c(nc3nc(nc4[nH]c(n1)c1ccccc41)-c1ccccc1-3)c1ccccc21", "note": "[Al(III)Phthalocyanine]", "values": [{"measurement": "absorption band superimposed with CeCl3 emission", "setting": "[2]; aqueous medium, c=4 μM", "result": "around 350 nm"}]}
